Measurements published in PubChem BioAssay (NCI).
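Test compounds were applied to cells in 96-well plates for 48 hours at 5 doses. TGI is the concentration that stops growth completely.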

What was measured:
Assay in all cases: NCI anticancer screen, dose series, 48 h
UO-31 renal = test system: UO-31 renal
TK-10 renal = test system: TK-10 renal
SF-539 CNS = test system: SF-539 CNS
U251 CNS = test system: U251 CNS
CCRF-CEM leukemia = test system: CCRF-CEM leukemia
MDA-MB-435 = test system: MDA-MB-435
HOP-62 NSCLC = test system: HOP-62 NSCLC
HT29 colon = test system: HT29 colon
NCI-H460 lung = test system: NCI-H460 lung
PC-3 prostate = test system: PC-3 prostate
COLO 205 colon = test system: COLO 205 colon
RPMI-8226 leukemia = test system: RPMI-8226 leukemia
SK-MEL-2 melanoma = test system: SK-MEL-2 melanoma
BT-549 breast = test system: BT-549 breast
ACHN renal = test system: ACHN renal
MDA-MB-231 breast = test system: MDA-MB-231 breast
SK-MEL-28 melanoma = test system: SK-MEL-28 melanoma

Structure (SMILES)	TGI (UO-31 renal)	TGI (TK-10 renal)	TGI (SF-539 CNS)	TGI (U251 CNS)	TGI (CCRF-CEM leukemia)	TGI (MDA-MB-435)	TGI (HOP-62 NSCLC)	TGI (HT29 colon)	TGI (NCI-H460 lung)	TGI (PC-3 prostate)	TGI (COLO 205 colon)	TGI (RPMI-8226 leukemia)	TGI (SK-MEL-2 melanoma)	TGI (BT-549 breast)	TGI (ACHN renal)	TGI (MDA-MB-231 breast)	TGI (SK-MEL-28 melanoma)
CC(C)(C)N1C(=O)c2ccccc2C1(O)C(F)(F)F (stereo not drawn)	> 100 µM	> 100 µM	> 100 µM	> 100 µM	> 100 µM	> 100 µM	> 100 µM	> 100 µM	> 100 µM	> 100 µM	> 100 µM	> 100 µM	> 100 µM	> 100 µM	> 100 µM	> 100 µM	> 100 µM
CC(C)(C)OC(=O)[C@@H]1CCC(=S)N1Cc1ccccc1	> 100 µM	> 100 µM	> 100 µM	> 100 µM	> 100 µM	> 100 µM			> 100 µM	> 100 µM	> 100 µM	> 100 µM	> 100 µM	> 100 µM	> 100 µM	> 100 µM	> 100 µM
COc1cccc(C(=O)Nc2c3ccccc3nc3ccccc23)c1OC	14.7 µM	> 100 µM	> 100 µM	> 100 µM	> 100 µM	> 100 µM	> 100 µM	> 100 µM	> 100 µM	> 100 µM	> 100 µM	> 100 µM	> 100 µM	> 100 µM	> 100 µM	> 100 µM	> 100 µM
O=C(Nc1ccc(Cl)cc1)NS(=O)(=O)c1coc2ccccc2c1=O		> 10 µM	> 10 µM	> 10 µM	> 10 µM	> 10 µM	> 10 µM	> 10 µM	> 10 µM	> 10 µM	> 10 µM	> 10 µM	> 10 µM	> 10 µM	> 10 µM	> 10 µM	> 10 µM
CCN(CC)C(=S)SNc1ccc(S(N)(=O)=O)cc1	> 100 µM	> 100 µM	> 100 µM	> 100 µM		> 100 µM	> 100 µM	> 54.6 µM	> 100 µM	> 100 µM	> 100 µM	> 78.9 µM	> 100 µM	> 100 µM	> 100 µM	> 100 µM	> 100 µM
Cc1cc(=O)oc2cc(SC(=O)N(C)C)ccc12	> 100 µM	> 100 µM	> 100 µM	> 100 µM		> 100 µM	> 100 µM	> 100 µM	> 100 µM	> 100 µM	> 100 µM	> 100 µM	> 100 µM	> 100 µM	> 100 µM	> 100 µM	> 100 µM
Cc1ccc2c3c(cnc2n1)C(=O)OCCN3C	> 100 µM	> 100 µM	> 100 µM	> 100 µM	> 100 µM	> 100 µM	> 100 µM	> 100 µM	> 100 µM	> 100 µM	> 100 µM		> 100 µM	> 100 µM	> 100 µM	> 100 µM	> 100 µM
